Holding throughout (assay type): biochemical
One test has as its target T1, Gox2684 (Gluconobacter oxydans, UniProt Q5HXK5).
T1 sequence (Q5HXK5 1-357): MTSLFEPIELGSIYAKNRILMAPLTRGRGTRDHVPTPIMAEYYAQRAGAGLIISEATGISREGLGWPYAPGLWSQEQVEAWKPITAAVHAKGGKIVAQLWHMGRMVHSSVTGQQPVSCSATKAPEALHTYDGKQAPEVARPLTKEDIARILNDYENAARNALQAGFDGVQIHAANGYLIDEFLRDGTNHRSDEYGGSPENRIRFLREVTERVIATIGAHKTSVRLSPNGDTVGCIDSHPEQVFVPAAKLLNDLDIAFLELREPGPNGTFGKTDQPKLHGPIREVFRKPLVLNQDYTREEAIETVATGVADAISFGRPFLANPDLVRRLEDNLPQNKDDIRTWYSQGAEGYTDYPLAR
As to the kind of experiment: Enzyme activity assay (rate of NAD(P)H decrease at 340 nm), Gox2684. Particulars: for activities: Gox2684, substrates with highest activities; for Specific Activities: Tab. 8, GOX2684, cofactor NADPH, 10 mM substrate, pH 7.0, 30 °C. An outline of the steps:
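Purified enzymes assayed at 30 °C in 40 mM potassium phosphate pH 7.0 with 10 mM substrate and NAD(P)H (0.025 mM, or 0.05 mM in the standard mixture), started by adding enzyme or substrate. Activity followed as the rate of NAD(P)H decrease at 340 nm; one unit = 1 µmol pyridine nucleotide converted per min; protein measured by Bradford.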

The target in another test is Gox0644 (Gluconobacter oxydans, UniProt Q5FT75). Kind of test: Regioselectivity of bioconversion, product determined by NMR, Gox0644. Particulars: bioconversion with Gox1122 cofactor regeneration, NMR analysis. From the text: Cofactor regeneration: A prerequisite for the production of α-hydroxycarbonyl compounds is the regeneration of the expensive coenzymes and the stability of the protein catalysts. By coupling two coenzyme-dependent enzyme reactions, NADPH can be continuously regenerated. […] For this purpose, we used a combined enzymatic reaction between the NADPH-dependent oxidoreductases that form α-hydroxycarbonyl compounds and the aldehyde dehydrogenase GOX1122 (see Schweiger, P. et al., J. Mol. Microbiol. Biotechnol. 13:147-155 (2007)) that produces the reduced cofactor in the course of acetaldehyde oxidation. […] The biotransformation was performed in a batch process (total volume 2.5 ml 40 mM potassium phosphate buffer pH 7). 30 µg of purified Gox1122 and of NADPH-dependent oxidoreductases and 50 µM NADPH were added. The substrate concentration in the beginning was 20 mM 2,3-pentanedione and 20 mM acetaldehyde. Fresh substrates were added every 60 min (20 mM each).
NMR: The 2.5 ml bioconversion was extracted with two times equal volume of d-chloroform. ^1H and ^13C NMR spectra were recorded on a DPX 300 Spectrometer (300 MHz) and referenced to the CDCl3 internal standard. Chemical samples analyzed with Bruker NMR Suite 2.5 software constructed final product structures.
2.7 Regioselectivity of GOX0644 and GOX1615: Tab. […] Tab. 10: Summary of Regioselectivity
5 ml bioconversions for determining regioselectivity were set up with 2 mg of proteins Gox0644 and Gox1122, 40 mM potassium phosphate buffer, pH 7.0, 50 µM NADPH. Substrates (20 mM 2,3 pentanedione and acetaldehyde) were added every 30 min. The reaction was followed for 3 h to produce quantities between 40-60 mg of product (hydroxy-pentanone).

In another test the target is T2, Gox0646 (Gluconobacter oxydans, UniProt Q5FT73).
T2 sequence (Q5FT73 1-264): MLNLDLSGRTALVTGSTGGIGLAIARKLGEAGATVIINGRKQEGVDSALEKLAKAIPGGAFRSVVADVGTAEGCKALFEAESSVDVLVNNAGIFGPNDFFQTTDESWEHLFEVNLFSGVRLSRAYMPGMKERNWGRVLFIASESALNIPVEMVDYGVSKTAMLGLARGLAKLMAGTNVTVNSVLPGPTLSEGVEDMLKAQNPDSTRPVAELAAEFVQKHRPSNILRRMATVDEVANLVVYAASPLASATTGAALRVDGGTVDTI
Kind of test: Enzyme activity assay (rate of NAD(P)H decrease at 340 nm), Gox0646. Particulars: 10 mM substrate; for Specific Activities: Tab. 9, GOX0646, cofactor NADPH, pH 7.0, 30 °C; for Activity: Table 3, Gox0646, K-phosphate buffer pH 7.0, 0.05 mM NAD(P)H, 30 °C. As to the method: Measurment of enzyme activity: NADPH-dependent alpha-ketocarbonyl reductases were assayed by a routine method used for NAD(P)-linked enzymes by recording the rate of decrease of NADPH at 340 nm (ε = 6.22 mM^-1 x cm^-1)) with substrates at 30 °C. The reaction mixture (1 ml) for reduction of alpha-ketocarbonyl substrates contained 10 mM substrate, 40 mM potassium phosphate buffer pH 7.0, 0.025 mM NAD(P)H , and the enzyme. Reactions were induced by addition of enzyme or substrate. One unit of enzyme activity was defined as the amount of enzyme catalyzing the conversion of 1 µmol of pyridine nucleotide per min at 30 °C.
NADPH-dependent α-ketocarbonyl reductases were assayed by a routine method used for NAD(P)-linked enzymes by recording the rate of decrease of NADPH at 340 nm (ε = 6.22 mM^-1.cm^-1) with substrates at 30 °C. The reaction mixture (1 ml) for reduction of alpha-ketocarbonyl substrates contained 10 mM substrate, 40 mM potassium phosphate buffer pH 7.0, 0.025 mM NADPH , and the enzyme. Reactions were induced by addition of enzyme or substrate. One unit of enzyme activity was defined as the amount of enzyme catalyzing the conversion of 1 µmol of pyridine nucleotide per min at 30 °C.
For each enzyme (Gox0313, Gox0502, Gox0644, Gox0646, Gox1615, Gox2107, and Gox2684 respectively), fresh enzyme preparations were used to validate the substrate spectrum and the kinetic activity. […] Purified NAD(P)-dependent oxidoreductases were assayed at 30 °C by a routine method used for NAD(P)-linked enzymes by recording the rate of decrease of NAD(P)H at 340 nm (ε = […]) with substrates capable of reduction reactions. The standard reaction mixture (1 ml) for the reduction reactions of substrates contained 10 mM substrate, 40 mM potassium phosphate buffer (K-phosphate buffer) pH 7.0, 0.05 mM NAD(P)H, and the enzyme unless otherwise noted. Reactions were induced by addition of enzyme or substrate. One unit of enzyme activity was defined as the amount of enzyme catalyzing the conversion of 1 µmol of pyridine nucleotide per min at 30 °C. Measurement of the protein content was performed by the method of Bradford in Anal. Biochem. 72:248-254 (1976). Table 3: Summary of enzymatic activities with α-diketones, α-ketoaldehydes and /or α-ketoesters

SMILES strings stand for the structures.

Take `CCCC(=O)C(C)=O` [2,3-hexanedione]: on Gox2684, the activities was 2.3 U/mg protein and the “Specific Activities” value came out at 2.3 U/mg. Besides, the “Product (regioselective reduction)” value at Gox0644 is reported as 2-hydroxy-hexane-3-one. In addition, at Gox0646, the “Specific Activities” value came out at 8.0 U/mg and the Activity is given as 8.0 U/mg.

As for `O=CC(=O)c1ccccc1` [phenylglyoxal], at Gox2684, the activities was determined as 2.1 U/mg protein and the “Specific Activities” value is 2.1 U/mg. Moreover, at Gox0644, the “Product (regioselective reduction)” value is on record as 2-hydroxy-2-phenylacetaldehyde.

`CCC(=O)C(C)=O` [2,3-pentanedione]: the “Specific Activities” value stood at 0.6 U/mg on Gox2684 and 8.0 U/mg at Gox0646. Moreover, the figures for the “Product (regioselective reduction)” value on Gox0644 and on Gox0644 (listed as 2,3 pentanedione) were 2-hydroxy-pentane-3-one and 2-hydroxy-pentan-3-one, respectively. Besides, the Activity at Gox0646 is recorded as 8.0 U/mg.

With `CCC(=O)C(=O)CC` [3,4-hexanedione], the “Specific Activities” value at Gox2684 stood at 0.6 U/mg. In addition, at Gox0646, the “Specific Activities” value was 2.0 U/mg and the Activity was found to be 2.0 U/mg.

Consider `CC(=O)C=O` [methylglyoxal], for which, at Gox2684, the “Specific Activities” value is 1.4 U/mg. Moreover, on Gox0646, the “Specific Activities” value is 0.2 U/mg and the Activity amounted to 0.2 U/mg.

The values above are taken from patent EP2119770B1, “Production of alpha-oxyfunctionalized carbonyl compounds” (priority 2008, dated 2009).
